Data taken from US12325697B2 (Nimbus Clio, Inc., priority 2021, dated 2025).

biological target: Recombinant human Cbl-b (aa 36-427) (Homo sapiens (Human), UniProt Q13191); assay: Cbl-b Biochemical Assay (TR-FRET); details: read-out: TR-FRET hCbl-b IC50
Method: Recombinant human Cbl-b (aa 36-427) was expressed in E. coli, purified and biotinylated in vitro. The protein was diluted to 12 nM in freshly prepared assay buffer consisting of 50 mM HEPES, pH 7.0, 100 mM NaCl, 5 mM MgCl2, 0.01% Triton-X 100, 0.01% BSA and 1 mM DTT. Recombinant human Src (aa 254-536)-[…]-Zap-70 (aa 281-297) fusion protein was expressed in E. coli and purified. Protein was diluted in assay buffer to 2-5 nM and supplemented with ATP to 1 mM. Fluorescein-BODIPY labeled UBE[…]([…])-Ub was prepared by conjugating ubiquitin (Ub) labeled at its N-terminus with Fluorescein-BODIPY maleimide (ThermoFisher Catalog no B10250) to E. coli expressed and purified UBE[…]([…]) [see Dou et al Nature Structural and Molecular Biology 8: 982-987, 2013]. Recombinant human UBE2D2([…]) was expressed in E. coli, purified and ubiquitinated and Bodipy labelled in vitro. Protein was diluted to 200 nM in assay buffer without MgCl2 (or Cisbio PPI buffer). Streptavidin-Terbium was added to 2 nM and EDTA to 10 mM, to provide a binding assay mix. Compounds were dissolved in DMSO and diluted to prepare a ten-point dilution series. 100 nl of each compound concentration was dispensed in duplicate in a 384 well black assay plate using acoustic dispensing. Wells for maximum signal controls received 100 nl of DMSO only and wells for minimum signal controls received 100 nl of a reference inhibitor compound at a final assay concentration of […] to produce 100% inhibition. 5 μl of diluted Cbl-b enzyme was added to all wells of the assay plate and incubated at RT for 30-60 min. The enzyme assay was initiated by addition of 5 μl of Src-Zap/ATP mix to all wells, and the plate incubated at RT for 60 min. The enzyme reaction was terminated and the binding reaction was initiated by adding 10 μl of binding assay mix to all wells and incubating the plate at RT for 60 min prior to assay read. Final assay conditions consisted of 6 nM Cbl-b, 1-2.5 nM Src-Zap70, 0.5 mM ATP, 1% (v/v) DMSO (enzyme reaction) and 100 nM UBE2D2([…])-Ub-FL-BODIPY, 5 mM EDTA, 1 nM Streptavidin-Tb (binding reaction). The HTRF assay signal was measured at 520 nm on an Envision plate reader, with reference signal at 485 or 620 nm. Data was normalized using maximum and minimum assay controls: % Inhibition=100-(100*((maximum control)-unknown)/(maximum control-minimum control)). A 4-parameter dose-response equation was used to fit the normalized dose-response data and derive an IC50 for test compounds.

Recombinant human Cbl-b (aa 36-427), sequence (Q13191 36-427): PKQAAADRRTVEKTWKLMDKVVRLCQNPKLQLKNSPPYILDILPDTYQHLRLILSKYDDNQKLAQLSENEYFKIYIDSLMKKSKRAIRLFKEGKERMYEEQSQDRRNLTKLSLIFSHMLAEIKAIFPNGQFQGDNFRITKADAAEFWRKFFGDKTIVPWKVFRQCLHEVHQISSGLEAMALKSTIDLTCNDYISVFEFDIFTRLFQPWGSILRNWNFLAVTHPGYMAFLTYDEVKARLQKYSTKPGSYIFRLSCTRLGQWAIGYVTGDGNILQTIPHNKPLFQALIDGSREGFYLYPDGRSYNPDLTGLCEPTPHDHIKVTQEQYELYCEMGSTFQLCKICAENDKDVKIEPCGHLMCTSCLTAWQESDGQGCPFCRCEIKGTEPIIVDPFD

| Structure (SMILES) | IC50 |
| --- | --- |
| Cn1cnnc1-c1ccccc1-c1cccc(N2Cc3c(cc(CN[C@H]4CCC[C@@H]4O)cc3C(F)(F)F)C2=O)c1 [Example T-2, 6-((((1S,2S)-2-Hydroxycyclopentyl)amino)methyl)-2-(2′-(4-methyl-4H-1,2,4-triazol-3-yl)-[1,1′-biphenyl]-3-yl)-4-(trifluoromethyl)isoindolin-1-one] | ≤ 200 nM |
| CCNc1cc(-c2c(-c3nncn3C)cnn2C)cc(N2Cc3c(cc(CN4CCC(F)C4)cc3C(F)(F)F)C2=O)n1 (stereo not shown) [ABP-3, 2-(6-(Ethylamino)-4-(1-methyl-4-(4-methyl-4H-1,2,4-triazol-3-yl)-1H-pyrazol-5-yl)pyridin-2-yl)-6-((3-fluoropyrrolidin-1-yl)methyl)-4-(trifluoromethyl)isoindolin-1-one] | ≤ 200 nM |
| Cn1cnnc1-c1ccc(Br)cc1-c1cccc(N2Cc3c(cccc3C(F)(F)F)C2=O)c1 [AAJ-9, 2-(5′-Bromo-2′-(4-methyl-4H-1,2,4-triazol-3-yl)-[1,1′-biphenyl]-3-yl)-4-(trifluoromethyl)isoindolin-1-one] | 1000 to 10000 nM |
| CCNc1cc(-c2c(-c3nncn3C)cnn2C)cc(N2Cc3c(cc(CN)cc3C(F)(F)F)C2=O)n1 [ACG-3, 6-(Aminomethyl)-2-(6-(ethylamino)-4-(1-methyl-4-(4-methyl-4H-1,2,4-triazol-3-yl)-1H-pyrazol-5-yl)pyridin-2-yl)-4-(trifluoromethyl)isoindolin-1-one] | ≤ 200 nM |
| Cn1cnnc1-c1nccn1-c1cccc(N2Cc3c(cccc3C(F)(F)F)C2=O)c1 [AAA-8, 2-[3-[2-(4-Methyl-1,2,4-triazol-3-yl)imidazol-1-yl]phenyl]-4-(trifluoromethyl)-3H-isoindol-1-one] | 10000 to 50000 nM |
| Cn1cnnc1-c1cc(C#N)ccc1-c1cccc(N2Cc3c(cccc3C(F)(F)F)C2=O)c1 [ACC-8, 2-(4-Methyl-4H-1,2,4-triazol-3-yl)-3′-(1-oxo-4-(trifluoromethyl)isoindolin-2-yl)-[1,1′-biphenyl]-4-carbonitrile] | ≤ 200 nM |
| Cn1cnnc1-c1cnn(C)c1-c1cc(O)nc(N2Cc3c(cc(CN4CCC5(CC5)C4)cc3C(F)(F)F)C2=O)c1 [ABE-1, 6-((5-Azaspiro [2.4]heptan-5-yl)methyl)-2-(6-hydroxy-4-(1-methyl-4-(4-methyl-4H-1,2,4-triazol-3-yl)-1H-pyrazol-5-yl)pyridin-2-yl)-4-(trifluoromethyl)isoindolin-1-one] | 1000 to 10000 nM |
| Cn1cnnc1-c1cnn(C)c1-c1cc(NS(C)(=O)=O)nc(N2Cc3c(cccc3C(F)(F)F)C2=O)c1 [AAW-2, N-(4-(1-Methyl-4-(4-methyl-4H-1,2,4-triazol-3-yl)-1H-pyrazol-5-yl)-6-(1-oxo-4-(trifluoromethyl)isoindolin-2-yl)pyridin-2-yl)methanesulfonamide] | 1000 to 10000 nM |
| CCNc1cc(-c2c(-c3nncn3C)cnn2C)cc(NC(=O)c2cc(OCCN3CCCC3)nc(C3CC3)n2)n1 [ABU-2, 2-Cyclopropyl-N-(6-(ethylamino)-4-(1-methyl-4-(4-methyl-4H-1,2,4-triazol-3-yl)-1H-pyrazol-5-yl)pyridin-2-yl)-6-(2-(pyrrolidin-1-yl)ethoxy)pyrimidine-4-carboxamide] | 200 to 1000 nM |
| Cc1nc[nH]c1-c1ccccc1-c1cccc(N2Cc3c(cccc3C(F)(F)F)C2=O)c1 [AAV-6, 2-(2′-(4-Methyl-1H-imidazol-5-yl)-[1,1′-biphenyl]-3-yl)-4-(trifluoromethyl)isoindolin-1-one] | 1000 to 10000 nM |
| CCNc1cc(-c2ccc(F)cc2-c2nncn2C)cc(N2Cc3c(cccc3C(F)(F)F)C2=O)n1 [ACM-8, 2-(6-(Ethylamino)-4-(4-fluoro-2-(4-methyl-4H-1,2,4-triazol-3-yl)phenyl)pyridin-2-yl)-4-(trifluoromethyl)isoindolin-1-one] | ≤ 200 nM |
| Cn1cnnc1-c1ccccc1-c1cc(NCCO)nc(N2Cc3c(cccc3C(F)(F)F)C2=O)c1 [ABT-2, 2-(6-((2-Hydroxyethyl)amino)-4-(2-(4-methyl-4H-1,2,4-triazol-3-yl)phenyl)pyridin-2-yl)-4-(trifluoromethyl)isoindolin-1-one] | 200 to 1000 nM |
| CCOc1cc(-c2c(-c3nncn3C)cnn2C)cc(N2Cc3c(cccc3C(F)(F)F)C2=O)c1 [AAI-7, 2-(3-Ethoxy-5-(1-methyl-4-(4-methyl-4H-1,2,4-triazol-3-yl)-1H-pyrazol-5-yl)phenyl)-4-(trifluoromethyl) isoindolin-1-one] | 200 to 1000 nM |
| CCn1ccc2c(-c3ccccc3-c3nncn3C)cc(N3Cc4c(cccc4C(F)(F)F)C3=O)nc21 [Example M-2, 2-(1-Ethyl-4-(2-(4-methyl-4H-1,2,4-triazol-3-yl)phenyl)-1H-pyrrolo[2,3-b]pyridin-6-yl)-4-(trifluoromethyl)isoindolin-1-one] | 1000 to 10000 nM |
| Cn1cc(-c2nncn2C)c(-c2cccc(N3Cc4c(cccc4C(F)(F)F)C3=O)c2)n1 [AAL-8, 2-[3-[1-Methyl-4-(4-methyl-1,2,4-triazol-3-yl)pyrazol-3-yl]phenyl]-4-(trifluoromethyl)-3H-isoindol-1-one] | 10000 to 50000 nM |
| CCNc1cc(-c2ccccc2-c2nncn2C)cc(N2Cc3c(cc(CN[C@H]4CCC[C@@H]4O)cc3C(F)(F)F)C2=O)n1 [AP-1, 2-(6-(Ethylamino)-4-(2-(4-methyl-4H-1,2,4-triazol-3-yl)phenyl)pyridin-2-yl)-6-((((1S,2S)-2-hydroxycyclopentyl)amino)methyl)-4-(trifluoromethyl)isoindolin-1-one] | ≤ 200 nM |
| CCNc1cc(-c2c(-c3nncn3C)cnn2C)cc(N2Cc3c(cc(CN4CC[C@H](F)C4)cc3C(F)(F)F)C2=O)n1 [ACB-1, (S)-2-(6-(Ethylamino)-4-(1-methyl-4-(4-methyl-4H-1,2,4-triazol-3-yl)-1H-pyrazol-5-yl)pyridin-2-yl)-6-((3-fluoropyrrolidin-1-yl)methyl)-4-(trifluoromethyl)isoindolin-1-one] | ≤ 200 nM |
| Cn1cnnc1-c1cnn(C)c1-c1cccc(NC(=O)c2cc(=O)n(C)c(C3CC3)n2)c1 [AAE-6, 2-Cyclopropyl-1-methyl-N-[3-[2-methyl-4-(4-methyl-1,2,4-triazol-3-yl)pyrazol-3-yl]phenyl]-6-oxopyrimidine-4-carboxamide] | 10000 to 50000 nM |
| CCOc1cc(-c2ccccc2-c2nncn2C)cc(N2Cc3c(cccc3C(F)(F)F)C2=O)c1 [AAR-5, 2-(5-Ethoxy-2′-(4-methyl-4H-1,2,4-triazol-3-yl)-[1,1′-biphenyl]-3-yl)-4-(trifluoromethyl) isoindolin-1-one] | 200 to 1000 nM |
| CCNc1cc(-c2ccccc2-c2nncn2C)cc(N2Cc3c(cc(CN4CCO[C@H](C)C4)cc3C(F)(F)F)C2=O)n1 [AN-1, (R)-2-(6-(Ethylamino)-4-(2-(4-methyl-4H-1,2,4-triazol-3-yl)phenyl)pyridin-2-yl)-6-((2-methylmorpholino)methyl)-4-(trifluoromethyl)isoindolin-1-one] | ≤ 200 nM |
| CNC(=O)c1cc(-c2ccccc2-c2nncn2C)cc(N2Cc3c(cccc3C(F)(F)F)C2=O)c1 [Example O-3, N-Methyl-2′-(4-methyl-4H-1,2,4-triazol-3-yl)-5-(1-oxo-4-(trifluoromethyl)isoindolin-2-yl)-[1,1′-biphenyl]-3-carboxamide] | 10000 to 50000 nM |
| CCNc1cc(-c2c(-c3nncn3C)cnn2C)cc(N2Cc3c(cc(O)cc3C(F)(F)F)C2=O)n1 [ACQ-7, 2-(6-(Ethylamino)-4-(1-methyl-4-(4-methyl-4H-1,2,4-triazol-3-yl)-1H-pyrazol-5-yl)pyridin-2-yl)-6-hydroxy-4-(trifluoromethyl)isoindolin-1-one] | ≤ 200 nM |
| Cn1cnnc1-c1ccc(C(F)(F)F)cc1-c1cccc(N2Cc3c(cccc3C(F)(F)F)C2=O)c1 [AAG-8, 2-(2′-(4-Methyl-4H-1,2,4-triazol-3-yl)-5′-(trifluoromethyl)-[1,1′-biphenyl]-3-yl)-4-(trifluoromethyl)isoindolin-1-one] | 10000 to 50000 nM |
| CCNc1cc(-c2c(-c3nncn3C)cnn2C)cc(N2Cc3c(cc(OC4CN(C)C4)cc3C(F)(F)F)C2=O)n1 [ACV-2, 2-(6-(Ethylamino)-4-(1-methyl-4-(4-methyl-4H-1,2,4-triazol-3-yl)-1H-pyrazol-5-yl)pyridin-2-yl)-6-((1-methylazetidin-3-yl)oxy)-4-(trifluoromethyl)isoindolin-1-one] | ≤ 200 nM |
| CC(C)Nc1cc(-c2c(-c3nncn3C)cnn2C)cc(N2Cc3c(cccc3C(F)(F)F)C2=O)n1 [ABI-1, 2-(6-(Isopropylamino)-4-(1-methyl-4-(4-methyl-4H-1,2,4-triazol-3-yl)-1H-pyrazol-5-yl)pyridin-2-yl)-4-(trifluoromethyl)isoindolin-1-one] | ≤ 200 nM |
